According to US20200291018A1, “TAM KINASE INHIBITORS” (SYROS PHARMACEUTICALS, INC., priority 2017, published 2020):

What was measured:
AXL = biological target: T1, AXL (Homo sapiens, UniProt P30530); experiment: TR-FRET kinase activity assay, AXL; assay type: biochemical; conditions: ATP at Km, 60 minutes
T1 sequence (P30530 26-894): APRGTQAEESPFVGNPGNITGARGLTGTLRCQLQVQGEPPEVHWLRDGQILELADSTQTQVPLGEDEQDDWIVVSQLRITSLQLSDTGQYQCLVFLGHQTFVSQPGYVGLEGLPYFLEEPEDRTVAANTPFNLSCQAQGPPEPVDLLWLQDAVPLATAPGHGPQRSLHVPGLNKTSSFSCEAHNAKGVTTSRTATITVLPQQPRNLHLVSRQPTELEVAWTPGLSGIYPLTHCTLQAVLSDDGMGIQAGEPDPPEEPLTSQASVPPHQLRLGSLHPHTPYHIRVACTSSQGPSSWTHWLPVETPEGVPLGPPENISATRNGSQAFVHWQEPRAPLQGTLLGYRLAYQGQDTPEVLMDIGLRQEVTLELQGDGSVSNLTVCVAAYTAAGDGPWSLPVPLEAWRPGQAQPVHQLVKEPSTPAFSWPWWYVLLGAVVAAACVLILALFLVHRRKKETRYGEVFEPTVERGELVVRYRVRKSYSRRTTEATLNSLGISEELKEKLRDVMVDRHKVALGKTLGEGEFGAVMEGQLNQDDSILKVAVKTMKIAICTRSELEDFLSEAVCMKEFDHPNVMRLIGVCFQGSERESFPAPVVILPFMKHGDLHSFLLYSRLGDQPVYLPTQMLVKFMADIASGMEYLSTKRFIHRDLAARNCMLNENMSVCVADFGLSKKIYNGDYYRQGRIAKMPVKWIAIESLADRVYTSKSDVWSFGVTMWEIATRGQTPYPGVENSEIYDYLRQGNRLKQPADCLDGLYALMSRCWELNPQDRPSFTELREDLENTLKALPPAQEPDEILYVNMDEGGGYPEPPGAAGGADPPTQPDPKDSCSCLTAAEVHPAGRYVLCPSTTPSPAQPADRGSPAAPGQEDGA
Summary of the method: (§1)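 Each kinase phosphorylates a fluorescently labeled peptide on tyrosine in the presence of compound, with ATP at its Km, for 60 min at RT in HEPES pH 7.5 buffer with MgCl2, EGTA, Brij 35 and DTT. Product is detected by TR-FRET with a Europium-labeled phospho-specific antibody; IC50 values follow.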

FLT3 = biological target: T2, FLT3 (Homo sapiens, UniProt P36888); experiment: TR-FRET kinase activity assay, FLT3; assay type: biochemical; conditions: ATP at Km, 60 minutes
T2 sequence (P36888 27-993): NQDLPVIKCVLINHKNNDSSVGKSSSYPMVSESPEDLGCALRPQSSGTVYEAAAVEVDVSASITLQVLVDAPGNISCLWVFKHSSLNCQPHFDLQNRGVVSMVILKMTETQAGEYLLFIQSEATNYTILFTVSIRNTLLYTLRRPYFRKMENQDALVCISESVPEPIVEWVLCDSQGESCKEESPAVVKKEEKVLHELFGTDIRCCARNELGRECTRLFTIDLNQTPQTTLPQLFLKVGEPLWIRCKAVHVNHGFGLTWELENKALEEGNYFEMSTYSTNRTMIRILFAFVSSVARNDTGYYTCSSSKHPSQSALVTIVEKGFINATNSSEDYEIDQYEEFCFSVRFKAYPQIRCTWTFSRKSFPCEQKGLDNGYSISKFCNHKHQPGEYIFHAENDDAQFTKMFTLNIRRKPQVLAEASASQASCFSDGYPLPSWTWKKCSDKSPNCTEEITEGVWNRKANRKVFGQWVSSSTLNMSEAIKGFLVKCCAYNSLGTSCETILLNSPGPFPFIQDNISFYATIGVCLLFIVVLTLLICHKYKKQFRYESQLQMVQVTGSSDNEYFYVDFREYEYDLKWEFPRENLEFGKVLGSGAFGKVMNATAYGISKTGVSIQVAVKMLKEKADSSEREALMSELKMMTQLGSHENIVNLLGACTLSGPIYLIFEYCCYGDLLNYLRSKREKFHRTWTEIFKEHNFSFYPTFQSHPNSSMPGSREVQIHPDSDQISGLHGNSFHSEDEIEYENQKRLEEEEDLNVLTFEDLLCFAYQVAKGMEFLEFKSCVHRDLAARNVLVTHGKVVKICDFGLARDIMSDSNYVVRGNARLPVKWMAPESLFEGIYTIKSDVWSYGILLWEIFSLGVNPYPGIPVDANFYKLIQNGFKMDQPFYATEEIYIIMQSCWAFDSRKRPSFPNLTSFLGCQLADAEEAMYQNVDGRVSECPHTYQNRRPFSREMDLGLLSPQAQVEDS
Summary of the method: as §1

Compound	IC50 (AXL)	IC50 (FLT3)
CCC(CC)Nc1ncc2c(=O)n(C3CCNCC3)cc([C@H]3CC[C@H](O)CC3)c2n1 [Compound 120]	1 to 10 µM	1 to 10 µM
COC[C@H](C)Nc1ncc2c(OC3CCOCC3)ncc([C@H]3CC[C@H](O)CC3)c2n1 [Compound 122, (1S,4r)-4-(2-(((S)-1-methoxypropan-2-yl)amino)-5-((tetrahydro-2H-pyran-4-yl)oxy)pyrido[4,3-d]pyrimidin-8-yl)cyclohexan-1-ol]	0.1 to 1 µM	1 to 10 µM
CCCCNc1ncc2c(NC3CCOCC3)ncc([C@H]3CC[C@H](O)CC3)c2n1 [Compound 124]	≤ 0.1 µM	≤ 0.1 µM
CCCCNc1ncc2c(OCCOC)ncc([C@H]3CC[C@H](O)CC3)c2n1 [Compound 125]	0.1 to 1 µM	≤ 0.1 µM
CCC[C@H](C)Nc1ncc2c(=O)n(C3CCNCC3)cc([C@H]3CC[C@H](O)CC3)c2n1 [Compound 126]	0.1 to 1 µM	1 to 10 µM
COCCN1C(C)(C)CC(Oc2ncc([C@H]3CC[C@H](O)CC3)c3nc(N[C@@H](C)CC(F)(F)F)ncc23)CC1(C)C [Compound 355]	≤ 0.1 µM	0.1 to 1 µM
Cc1ncc([C@H]2CC[C@H](O)CC2)c2nc(N[C@@H](C)CC(F)(F)F)ncc12 [Compound 356]	0.1 to 1 µM	1 to 10 µM
COC[C@H](C)Nc1ncc2c(O[C@H]3CCOC3)ncc([C@H]3CC[C@H](O)CC3)c2n1 [Compound 357]	1 to 10 µM	1 to 10 µM
COC[C@H](C)Nc1ncc2c(OC3CCOCC3)ncc(C3CCC(F)(F)CC3)c2n1 [Compound 358]	1 to 10 µM	1 to 10 µM
CCOc1ncc([C@H]2CC[C@H](O)CC2)c2nc(N[C@@H](C)CC(F)(F)F)ncc12 [Compound 359]	0.1 to 1 µM	0.1 to 1 µM
C[C@@H](CC(F)(F)F)Nc1ncc2c(O[C@H]3C[C@@H](O)C3)ncc([C@H]3CC[C@H](O)CC3)c2n1 [Compound 360]	0.1 to 1 µM	0.1 to 1 µM
COC[C@H](C)Nc1ncc2c(OC3CC(C)(C)N(C(C)=O)C(C)(C)C3)ncc([C@H]3CC[C@H](O)CC3)c2n1 [Compound 361]	1 to 10 µM	1 to 10 µM
COC[C@H](C)Nc1ncc2c(Nc3ccncc3)ncc([C@H]3CC[C@H](O)CC3)c2n1 [Compound 362]	1 to 10 µM	1 to 10 µM
COC[C@H](C)Nc1ncc2c(Nc3cccnc3)ncc([C@H]3CC[C@H](O)CC3)c2n1 [Compound 363]	1 to 10 µM	1 to 10 µM
C[C@@H](CC(F)(F)F)Nc1ncc2c(O[C@H]3C[C@H](O)C3)ncc([C@H]3CC[C@H](O)CC3)c2n1 [Compound 364]	0.1 to 1 µM	0.1 to 1 µM
C[C@H](Nc1ncc2c(OC3CCOCC3)ncc([C@H]3CC[C@H](O)CC3)c2n1)C(F)F [Compound 365]	0.1 to 1 µM	1 to 10 µM
COC[C@H](C)Nc1ncc2c(O[C@@H]3CCN(C)C3)ncc([C@H]3CC[C@H](O)CC3)c2n1 [Compound 366]	1 to 10 µM	1 to 10 µM
CC[C@@H](C)Nc1ncc2c(OC3CC(C)(C)N(C)C(C)(C)C3)ncc([C@H]3CC[C@H](O)CC3)c2n1 [Compound 367]	≤ 0.1 µM	0.1 to 1 µM
COC[C@H](C)Nc1ncc2c(O[C@H]3CCN(C)C3)ncc([C@H]3CC[C@H](O)CC3)c2n1 [Compound 368]	1 to 10 µM	> 10 µM
COCCN1CCC(Oc2ncc([C@H]3CC[C@H](O)CC3)c3nc(N[C@@H](C)CC(F)(F)F)ncc23)CC1 [Compound 369]	0.1 to 1 µM	1 to 10 µM

Compound	IC50 (AXL)	IC50 (FLT3)
C[C@@H](CC(F)(F)F)Nc1ncc2c(OC3C[C@H]4CC[C@@H](C3)N4C)ncc([C@H]3CC[C@H](O)CC3)c2n1 (stereo partly drawn) [Compound 370]	≤ 0.1 µM	0.1 to 1 µM
COC[C@H](C)Nc1ncc2c(OC3C[C@@H](C)N(C)[C@@H](C)C3)ncc([C@H]3CC[C@H](O)CC3)c2n1 (stereo partly drawn) [Compound 371]	0.1 to 1 µM	1 to 10 µM
COC[C@H](C)Nc1ncc2c(Nc3ccnc(C)c3)ncc([C@H]3CC[C@H](O)CC3)c2n1 [Compound 372]	1 to 10 µM	1 to 10 µM
C[C@@H](CC(F)(F)F)Nc1ncc2c(OC3CCN(c4ncccn4)CC3)ncc([C@H]3CC[C@H](O)CC3)c2n1 [Compound 373]	0.1 to 1 µM	1 to 10 µM
COC[C@H](C)Nc1ncc2c(Nc3ccc(C)nc3)ncc([C@H]3CC[C@H](O)CC3)c2n1 [Compound 374]	1 to 10 µM	1 to 10 µM
Cc1nccc(N2CCC(Oc3ncc([C@H]4CC[C@H](O)CC4)c4nc(N[C@@H](C)CC(F)(F)F)ncc34)CC2)n1 [Compound 375]	0.1 to 1 µM	0.1 to 1 µM
COCCN1C(C)(C)CC(Oc2ncc([C@H]3CC[C@H](O)CC3)c3nc(N[C@@H](C)CC#N)ncc23)CC1(C)C [Compound 376]	0.1 to 1 µM	1 to 10 µM
COCC(=O)N1C(C)(C)CC(Oc2ncc([C@H]3CC[C@H](O)CC3)c3nc(N[C@@H](C)CC(F)(F)F)ncc23)CC1(C)C [Compound 377]	1 to 10 µM	1 to 10 µM
C[C@@H](CC(F)(F)F)Nc1ncc2c(OC3CCN([C@@H]4CCOC4)CC3)ncc([C@H]3CC[C@H](O)CC3)c2n1 [Compound 378]	0.1 to 1 µM	1 to 10 µM
COCCN1C(C)(C)CC(Oc2ncc([C@H]3CC[C@H](O)CC3)c3nc(NC4(C)CC4)ncc23)CC1(C)C [Compound 379]	≤ 0.1 µM	0.1 to 1 µM
COCCN1C(C)(C)CC(Oc2ncc([C@H]3CC[C@H](O)CC3)c3nc(N[C@@H](C)CCO)ncc23)CC1(C)C [Compound 380]	0.1 to 1 µM	1 to 10 µM
COCCN1C(C)(C)CC(Oc2ncc([C@H]3CC[C@H](O)CC3)c3nc(N[C@@H](C)CF)ncc23)CC1(C)C [Compound 381]	≤ 0.1 µM	1 to 10 µM
C[C@@H](CF)Nc1ncc2c(OC3CC(C)(C)N(C)C(C)(C)C3)ncc([C@H]3CC[C@H](O)CC3)c2n1 [Compound 382]	0.1 to 1 µM	1 to 10 µM
C[C@@H](CC(F)(F)F)Nc1ncc2c(OC3CCN([C@H]4CCOC4)CC3)ncc([C@H]3CC[C@H](O)CC3)c2n1 [Compound 383]	0.1 to 1 µM	1 to 10 µM
COC[C@H](C)Nc1ncc2c(O[C@H]3CCN(C)C(C)(C)C3)ncc([C@H]3CC[C@H](O)CC3)c2n1 [Compound 384]	0.1 to 1 µM	1 to 10 µM
COC[C@H](C)Nc1ncc2c(O[C@@H]3CCN(C)C(C)(C)C3)ncc([C@H]3CC[C@H](O)CC3)c2n1 [Compound 385]	0.1 to 1 µM	1 to 10 µM
C[C@@H](CC(F)(F)F)Nc1ncc2c(OC3CC(C)(C)N(C)C(C)(C)C3)ncc([C@H]3CC[C@H](O)CC3)c2n1 [Compound 386]	≤ 0.1 µM	0.1 to 1 µM
COC[C@H](C)Nc1ncc2c(OC3C[C@H](C)N(C)[C@@H](C)C3)ncc([C@H]3CC[C@H](O)CC3)c2n1 (stereo partly drawn) [Compound 387]	0.1 to 1 µM	1 to 10 µM
COC[C@H](C)Nc1ncc2c(OC3C[C@@H](C)N(C)[C@H](C)C3)ncc([C@H]3CC[C@H](O)CC3)c2n1 (stereo partly drawn) [Compound 388]	0.1 to 1 µM	1 to 10 µM
